Results taken from patent US11517571B2, “Use of kinase inhibitors to manage tuberculosis and other infectious diseases” (priority 2015, dated 2022).

Tests used:
[1] = system: mycobacterium; assay: Mice infected with mycobacterium, CFU in the spleen; assay type: in vivo; conditions: 7 days p.i., FIG. 2
Method: Mice infected with mycobacterium were administered […], rifabutin (2.5 mg/kg/day) alone, and/or a combination of both. CFU in the spleen were determined 7 days (p.i.).

[2] = in vivo
[3] = target: c-Kit (Homo sapiens, UniProt P10721); conditions: in vivo
c-Kit, sequence (P10721 26-976): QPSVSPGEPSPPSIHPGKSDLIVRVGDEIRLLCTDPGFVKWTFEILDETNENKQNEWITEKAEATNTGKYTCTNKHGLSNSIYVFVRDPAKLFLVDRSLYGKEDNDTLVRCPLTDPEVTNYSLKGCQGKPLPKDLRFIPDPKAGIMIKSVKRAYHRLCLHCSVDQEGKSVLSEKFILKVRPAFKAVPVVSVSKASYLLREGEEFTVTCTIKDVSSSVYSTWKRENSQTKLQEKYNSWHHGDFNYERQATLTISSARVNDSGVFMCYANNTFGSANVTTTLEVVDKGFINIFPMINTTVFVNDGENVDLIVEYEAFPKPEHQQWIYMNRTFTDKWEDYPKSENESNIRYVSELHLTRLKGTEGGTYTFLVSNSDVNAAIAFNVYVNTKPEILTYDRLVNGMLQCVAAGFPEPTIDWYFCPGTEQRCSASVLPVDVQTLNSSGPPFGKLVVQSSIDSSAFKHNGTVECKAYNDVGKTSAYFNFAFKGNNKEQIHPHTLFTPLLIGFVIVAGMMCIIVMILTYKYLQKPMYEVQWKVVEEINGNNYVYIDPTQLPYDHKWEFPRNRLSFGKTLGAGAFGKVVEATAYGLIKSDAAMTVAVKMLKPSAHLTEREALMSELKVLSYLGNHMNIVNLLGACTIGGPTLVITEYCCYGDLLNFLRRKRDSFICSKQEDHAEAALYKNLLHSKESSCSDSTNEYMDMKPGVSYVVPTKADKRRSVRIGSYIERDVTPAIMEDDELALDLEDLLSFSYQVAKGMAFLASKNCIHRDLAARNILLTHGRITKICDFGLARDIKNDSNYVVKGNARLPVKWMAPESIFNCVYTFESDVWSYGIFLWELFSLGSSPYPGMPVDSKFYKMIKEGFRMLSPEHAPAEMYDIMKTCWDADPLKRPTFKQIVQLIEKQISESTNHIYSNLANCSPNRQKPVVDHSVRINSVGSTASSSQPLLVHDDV

[4] = Drug concentration in the blood after administration
[5] = system: Mtb; assay: Rhesus macaque latent TB reactivated by SIV; assay type: in vivo, Rhesus macaques; conditions: then SIV
[6] = system: mycobacterium; assay: In vivo studies with animals infected with mycobacterium
[7] = system: Mtb within infected macrophages; assay: Mtb in infected macrophages: bacterial load and phagosome-to-lysosome translocation; assay type: cell-based

Row | SMILES | bacterial load (CFU in the spleen) ([1]; rifabutin 2.5 mg/kg/day alone) | bacterial load (CFU in the spleen) ([1]; 100 mg/kg/day alone) | concentration in the blood [2] [nM] | myelopoiesis (stem cells divide and differentiate along the myeloid lineage) [3] | numbers of innate immune cells in the blood and organs [3] | peak concentration [4] | time to peak concentration [4] [h] | survival ([5]; latent infection for 6-10 weeks, daily treatment, FIG. 3B) | TB reactivation induced by SIV ([5]; latent infection) | amount of granulomatous lesions within the liver [6] | bacterial load in macrophages [6] | bacterial load in macrophages ([7]; FIG. 1) | translocation of Mtb from the phagosome into the lysosome ([7]; at peak concentration in the micromolar range, depends on Abl)
1 | CO[C@H]1/C=C/O[C@@]2(C)Oc3c(C)c(O)c4c(c3C2=O)C2=NC3(CCN(CC(C)C)CC3)NC2=C(NC(=O)/C(C)=C\C=C\[C@H](C)[C@H](O)[C@@H](C)[C@@H](O)[C@@H](C)[C@H](OC(C)=O)[C@@H]1C)C4=O [Rifabutin] | decrease in bacterial load |  |  |  |  |  |  |  |  |  |  |  | 
2 | Cc1ccc(NC(=O)c2ccc(CN3CCN(C)CC3)cc2)cc1Nc1nccc(-c2cccnc2)n1 [imatinib, N-(4-methyl-3-((4-(pyridin-3-yl)pyrimidin-2-yl)amino)phenyl)-4-((4-methylpiperazin-1-yl)methyl)benzamide] |  | decrease in bacterial load | ~100 | encourages the stem cells to divide and differentiate along the myeloid lineage | increase | micromolar range | ≤ 6 | survived | prevents reactivation | reduced the amount of granulomatous lesions | reduced bacterial load in macrophages | decreases bacterial load | induces translocation of Mtb
